Data reported in patent US20210060044A1, “METHODS FOR TREATING BLADDER CANCER BY ACTIVATION OF HEDGEHOG SIGNALING USING A M[…]” (POSTECH Research and Business Development Foundation, priority 2019, published 2021).
Where two headings read alike, the source gives them in different places.

Key:
[1] = tested on: CpG shore upstream of the CpG island of the Shh promoter region; settings: tumor organoids, 1 μM for four consecutive days; vehicle control 73%
Protocol: The DNA methylation status of mouse and human Shh was confirmed using genomic DNA bisulfite sequencing. For bisulfite conversion, 1 μg of genomic DNA was converted using a MethylEdge Bisulfite Conversion System (Promega) according to the manufacturer's instructions. The genomic sequences of the regulatory regions of mouse Shh and human SHH were obtained from the NCBI nucleotide database (Mus musculus: NC_000071.6, Homo sapiens: NG_007504.2), and the CpG island (island) and CpG shores in the regulatory region were identified using Methprimer 2.0 (Li and Dahiya, 2002) (RRID: SCR_010269). […]
(§6) The sequencing data was assembled using SnapGene software (https://snapgene.com/, RRID: SCR_015053) and the MUSCLE: multiple sequence alignment tool (haps://www.ebi.ac.uk/Tools/msa/muscle/ RRID: SCR_011812). […] The methylated CpG sites were counted and distinguished from unmethylated CpG sites.
BBN-induced bladder tumors were minced, and then incubated in DMEM (Gibco) containing collagenase I and II (20 mg/ml each) and thermolysin (250 KU/ml) at 37° C. for 2 hours, followed by 5-minute trituration every 30 minutes. […] After lysis of red blood cells in ACK lysis buffer (Gibco), the cells were washed with DMEM containing 10% fetal bovine serum (Millipore) and counted using a hemocytometer (Sigma). […]

BBN-induced tumors = settings: TM three days, transplantation, treatment 1.5 months
Protocol: (§7) For a gene deletion experiment, Col1a2^CreER (RRID: IMSR_JAX: 029235) mice were mated with the Smo^flox/flox (RRID: IMSR_JAX: 007926) or Gli2^flox/flox (RRID: IMSR_JAX: 004526) strains, thereby obtaining Col1a2^CreER; Smo^flox/flox or Col1a2^CreER;Gli2^flox/flox mice.
The mice were administered 8 mg of tamoxifen (TM; Sigma) per 30 g of body weight by oral gavage for three consecutive days. Male mice aged 8 to 10 weeks were used. […] The dosing duration is described in the brief description of the drawings. In each experiment, the mice were randomly selected for a drug/TM or control-treated group. The experiments involving mice were performed under isoflurane anesthesia.
Bladder tumors were dissociated into single cells as described above. The cells were resuspended in 80 ml DMEM containing 50% Matrigel (BD Bioscience), and then submucosally injected into the anterior aspect of the bladder dome using a 29-gauge insulin syringe. An abdominal incision and skin were closed with a 4-0 nylon suture, and the surgical site was disinfected with alcohol. Bladder tumor organoids were selected, and resuspended in a 50% organoid medium and 50%

J82 = tested on: J82
Protocol: (§1) Frozen human bladder tissue samples were obtained from the tissue bank of Seoul National University Hospital. For fresh bladder tumor samples, 0.5 to 1-cm^3 bladder tissue specimens were obtained from patients undergoing cystectomy or TURBT according to a protocol approved by the SNUH Institutional Review Board (IRB No.: 1607-135-777). Informed consent to patient information provision and publishing was obtained from the patients. The cancer tissues were evaluated before transport to POSTECH for additional analysis. For experiments for bladder cancer cell lines, J82 (RRID: CVCL_0359), T24 (RRID: CVCL_0554) and TCC (RRID: CVCL_1738) were used. All cell lines were authenticated by a STR profiling method, and tested negative for mycoplasma contamination.
(§2) Subsequently, the RNA samples were dissolved in RNase-free water, and their concentration and purity were measured with a spectrophotometer. The TAE/formamide electrophoresis method (Masek et al., 2005) was used for RNA quality analysis. For quantitative RT-PCR of mRNA transcripts, first-strand cDNA was synthesized using a high-capacity cDNA reverse transcriptase kit (Applied Biosystems) containing oligo dT. Quantitative RT-PCR was performed using SYBR Green Supermix (Applied Biosystems) and a one-step cycler (Applied Biosystems), and gene expression was normalized to the housekeeping gene HPRT1.

TCC-SUP = tested on: TCC-SUP
Protocol: as §1, §2

T24 = tested on: T24
Protocol: as §1, §2

Shh gene [2] = settings: orthotopic BBN-induced mouse tumor, 1 mg per kg every other day for 2 weeks
Protocol: (§3) Human or mouse bladder samples were snap-frozen in liquid nitrogen, homogenized with a mortar and a pestle, and RNA was extracted using an RNeasy Plus Mini Kit (Qiagen).
as §2

[3] = tested on: luminal and basal signatures; settings: tumor allografts, RNA-Seq
Protocol: Total RNA was extracted with a TRIzol reagent (Thermo Fisher) according to the manufacturer's instructions. RNA-seq libraries were constructed using the TruSeq sample prep kit V2 (Illumina). […] The RNA-seq libraries were sequenced using a NextSeq platform with 75-bp single-end reads.
Differentially expressed genes were analyzed using Cufflinks tools (Trapnell et al., 2012). From all annotated genes, genes were removed when the rpkm average of all sequenced samples is less than 1.0, such that the depth to which the genes are assigned may be low. GSEA was performed according to the instructions (RRID: SCR_003199). To generate a customized gene set for a luminal marker and a basal marker, a representative gene for each signature was obtained from a previous study (Damrauer et al., 2014). The RNA-seq data set used herein was deposited in NCBI GEO (Accession No.: GSE129441).
In addition, using standard luminal and basal signatures obtained from previous research, GSEA of tumor allografts treated with the vehicle control and 5′-azacitidine from RNA-Seq data was performed.

[4] = tested on: BBN-induced bladder tumor cells
Protocol: (§8) The mice were administered 8 mg of tamoxifen (TM; Sigma) per 30 g of body weight by oral gavage for three consecutive days. Male mice aged 8 to 10 weeks were used. […] In each experiment, the mice were randomly selected for a drug/TM or control-treated group. The experiments involving mice were performed under isoflurane anesthesia.
Bladder tumors were dissociated into single cells as described above. The cells were resuspended in 80 ml DMEM containing 50% Matrigel (BD Bioscience), and then submucosally injected into the anterior aspect of the bladder dome using a 29-gauge insulin syringe.
(§9) Tumor specimens were fixed in 10% neutral-buffered formalin for 12 hours, embedded in paraffin, and then sectioned into 4-um thick sections using a microtome. The slides were stained with hematoxylin and counter-stained with eosin for histological analysis. For immunostaining, tumor samples were embedded in an OCT compound (Tissue-Tek) and sectioned into 10-um-thick sections with a cryostat (Leica).
To evaluate the effect of the inhibition of DNA methyltransferase (DNMT) on the growth of bladder cancer, recently established transplantation models were used, and these models allow the proliferation of tumor cells transplanted in a microenvironment in vivo by injecting bladder cancer cells into the wall of the bladder dome.

[5] = tested on: BBN-induced bladder tumor cells; settings: nude mice, treated 2 weeks
Text: (§4) To evaluate the effect of DNA methyltransferase inhibition on the growth of bladder cancer under immunocompromised conditions, nude mice (14 mice) orthotopically injected with BBN-induced bladder tumor cells were divided into a vehicle control (7 mice) and a 5′-azacitidine-treated group (7 mice), and then treated with a vehicle and 5′-azacitidine for 2 weeks, respectively. In addition, allograft sections of the vehicle control or 5′-azacitidine-treated mice were subjected to H&E staining, and the experimental scheme is shown in FIG. 4A.

Ck18 = settings: tumor allografts, nude mice
Text: as §4

[6] = tested on: luminal markers (FOXA1 and GATA3) and basal markers (CDH3 and KRT6A); settings: J82 tumor xenografts
Protocol: as §2
(§5) To investigate the functional role of SHH expression in the growth of human bladder tumors and the effects of the Hh/BMP signaling feedback between tumors and the stroma on the subtype conversion of human muscle-invasive urothelial carcinoma, xenografts in which J82 cells were orthotopically injected into immunocompromised mice (NOD/SCID/IL2Rgnull) (14 mice) were treated with 5′-azacitidine for one month, and orthotopic xenografts in the mice treated with the vehicle control (7 mice) or 5′-azacitidine (7 mice) were subjected to H&E staining.

[7] = tested on: BBN-induced invasive carcinoma; settings: BBN 4 months, then treatment 2 months with continued BBN; found in vehicle control
Protocol: as §8
(§10) 0.1% N-butyl-N-4-hydroxybutyl nitrosamine (BBN, TCI) was dissolved in drinking water, and the BBN-containing water was placed in a dark bottle, and provided ad libitum to mice for 4 to 6 months. The BBN-containing water was replaced twice a week. Bladders were collected and analyzed 4 to 6 months after BBN administration.
as §9

[8] = tested on: CpG shore upstream of the CpG island of the Shh promoter region; settings: 1 mg per kg every other day for 2 weeks; vehicle control 62%
Protocol: as §8
The DNA methylation status of mouse and human Shh was confirmed using genomic DNA bisulfite sequencing. For bisulfite conversion, 1 μg of genomic DNA was converted using a MethylEdge Bisulfite Conversion System (Promega) according to the manufacturer's instructions. The genomic sequences of the regulatory regions of mouse Shh and human SHH were obtained from the NCBI nucleotide database (Mus musculus: NC_000071.6, Homo sapiens: NG_007504.2), and the CpG island (island) and CpG shores in the regulatory region were identified using Methprimer 2.0 (Li and Dahiya, 2002) (RRID: SCR_010269). The 2kb regions upstream and downstream of the CpG island were referred to as a “CpG upshore” and a “CpG downshore,” respectively. […]
as §6

[9] = tested on: BBN-induced muscle-invasive urothelial carcinoma; settings: Col1a2CreER;Smoflox/flox or Col1a2CreER;Gli2flox/flox mice, BBN 6 months
Protocol: as §7
The mice were administered 8 mg of tamoxifen (TM; Sigma) per 30 g of body weight by oral gavage for three consecutive days. Male mice aged 8 to 10 weeks were used. […] In each experiment, the mice were randomly selected for a drug/TM or control-treated group. The experiments involving mice were performed under isoflurane anesthesia. All procedures were performed according to a protocol approved by the Institutional Animal Care and Use Committee at POSTECH (IACUC number: POSTECH-2017-0094).
as §10

J82 cells = settings: J82 orthotopic xenograft, treated one month; vehicle: full-fledged muscle-invasive carcinoma
Protocol: as §5

[10] = tested on: luminal markers (Upk1a, Upk1b, Upk2, Upk3a, Upk3b, Krt20, Krt18); settings: tumor allografts; normalized to Krt5
Protocol: as §3, §2, §4

Shh gene [11] = settings: tumor organoids, 1 μM for four consecutive days
Protocol: as §2

Nc1ncn([C@@H]2O[C@H](CO)[C@@H](O)[C@H]2O)c(=O)n1 [5′-azacitidine]
methylation level in the CpG shore upstream of the CpG island of the Shh promoter region [1]: 43% | anticancer propagation effect in strains with genetically inhibited stromal Hh signaling pathway (BBN-induced tumors): disappeared | SHH expression, increase compared with untreated control (J82): 6 fold | SHH expression, increase compared with untreated control (TCC-SUP): 3 fold | SHH expression, increase compared with untreated control (T24): 7 fold | Shh gene expression level, increase compared to the vehicle control (Shh gene [2]): 11 fold | basal marker expression (GSEA) [3]: relatively low level | luminal signature (GSEA) [3]: strong luminal signature | growth of bladder tumors ([4]; immunocompetent wild-type mice): completely inhibits | invasive carcinoma (H&E) ([4]; treated for 1.5 months, appeared in vehicle control): no invasive carcinoma appeared | tumor lesions compared with untreated group (H&E) [5]: smaller tumor lesions | expression of luminal subtype marker Ck18 (immunostaining) (Ck18): increased | basal marker CDH3 expression, decrease compared with the vehicle [6]: 6 fold | basal marker KRT6A expression, decrease compared with the vehicle [6]: 9 fold | luminal marker FOXA1 expression, increase compared with the vehicle [6]: 1.8 fold | luminal marker GATA3 expression, increase compared with the vehicle [6]: 1.8 fold | invasive carcinoma (H&E) [7]: not found | methylation level in the CpG shore upstream of the CpG island of the Shh promoter region [8]: 36% | anticancer initiation effect in TM-treated group (stromal Hh response removed) [9]: reversed | cancer lesions in the bladder (H&E) (J82 cells): much smaller cancer lesions | Krt18 expression, increase compared with the vehicle control [10]: 2 fold | Krt20 expression, increase compared with the vehicle control [10]: 1.5 fold | Upk1a expression, increase compared with the vehicle control [10]: 3 fold | Upk1b expression, increase compared with the vehicle control [10]: 2 fold | Upk2 expression, increase compared with the vehicle control [10]: 2 fold | Upk3a expression, increase compared with the vehicle control [10]: 2.5 fold | Upk3b expression, increase compared with the vehicle control [10]: 2 fold | Shh gene expression level, increase compared to the vehicle control (Shh gene [11]): 9 fold
